Reference: patent US11384071B2, “Inhibitors of mechanotransduction to treat pain and modulate touch perception” (Max-Delbrück-Centrum für Molekulare Medizin in der …, priority 2016, dated 2022)

Assays:
[1] = system: cutaneous sensory afferents of the saphenous nerve; experiment: Ex vivo skin-nerve preparation after local injection into the paw; assay type: in vivo, mouse
Protocol: Mice were killed by CO2 inhalation for 2-4 min followed by cervical dislocation. The saphenous nerve and the shaved skin of the hind limb were dissected free and placed in an organ bath. The chamber was perfused with a synthetic interstitial fluid (SIF buffer) the composition of which was (in mM): NaCl, 123; KCl, 3.5; MgSO4, 0.7; NaH2PO4, 1.7; CaCl2), 2.0; sodium gluconate, 9.5; glucose, 5.5; sucrose, 7.5; and HEPES, 10 at a pH of 7.4. The skin was placed with the corium side up in the organ bath. The nerve was placed in an adjacent chamber on a mirror to aid fiber teasing under a stereomicroscope. Fine filaments were teased from the saphenous nerve and placed on the recording electrode.
For the electrical search protocol a micro electrode (1 MΩ) was gently maneuvered to contact the epineurium of the nerve trunk and an electrical stimulation was delivered at a one second interval with square wave pulses of […] duration. […] The electrical nerve stimulation was done at 2 distant sites of the saphenous nerve to trace electrically identified units to their receptive fields. Mechanical sensitivity of single units was tested by mechanical stimulation with a glass rod. For the mechanical search protocol, single units were identified by gentle mechanical stimulation of their receptive field with a glass rod. Mechanically-evoked spikes were visualized and the template saved in an oscilloscope. Then, a sharp tungsten metal electrode was placed in the receptive field and an electrically evoked spike was elicited with suprathreshold current pulses and the electrical latency, the time from the stimulation artifact to spike, was recorded. The distance between the stimulating and recording electrode was designated as the conduction distance. For each isolated fiber the conduction velocity was calculated by dividing conduction distance over electrical latency for the spike.
A computer-controlled nanomotor (Kleindiek, Reutlingen, Germany) was used to apply controlled displacement stimuli of known amplitude and velocity. The probe was a stainless steel metal rod and the diameter of the flat circular contact area was 0.8 mm containing a force transducer (Kleindiek, Reutlingen, Germany). The signal driving the movement of the linear motor and raw electrophysiological data were collected with a Powerlab 4.0 system (ADInstruments) and spikes were discriminated off-line with the spike histogram extension of the software.
We made subcutaneous injections of the OB-1 compound (250-500 pmol per paw) into the hairy skin of the mouse lateral foot innervated by the saphenous nerve and recorded from sensory afferents 3 h later using an ex vivo skin—nerve preparation^5,25.

ASIC3 = experiment: pH-gated ASIC3 currents and stomatin modulation in CHO cells; assay type: cell-based
Protocol: To test the effect of compounds on stomatin modulation of ASIC currents CHO cells were transfected with vectors encoding Stomatin and ASIC3, in a ratio of 4:1 using lipofectamine, as per manufacturer's instructions. Cells were incubated with 20 μM OB-1 for 3 hours in extracellular buffer (see above), and OB-1 was maintained in the media during electrophysiological experiments. ASIC3 channels were gated by applying solutions of pH6 and pH4, and both the transient and sustained peak current density was measured.

hsSTOML3 = biological target: T1, hsSTOML3 (Homo sapiens, UniProt Q8TAV4); experiment: TriGFP assay of hsSTOML3 self-association in N2a cells, flow cytometry; assay type: cell-based; details: 20 μM, 16 h, vs vehicle
T1 construct: expressed in transfected cells; host or cells: N2a
T1 sequence (Q8TAV4 whole entry): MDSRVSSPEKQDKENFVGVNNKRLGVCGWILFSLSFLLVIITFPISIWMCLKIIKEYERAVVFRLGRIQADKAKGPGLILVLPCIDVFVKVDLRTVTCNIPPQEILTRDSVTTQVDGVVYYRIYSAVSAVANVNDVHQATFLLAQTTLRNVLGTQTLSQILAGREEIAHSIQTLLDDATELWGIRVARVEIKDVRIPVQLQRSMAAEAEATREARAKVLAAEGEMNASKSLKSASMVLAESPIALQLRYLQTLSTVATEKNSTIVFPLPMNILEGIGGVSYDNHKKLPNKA
Protocol: (a) The assay is based on the tripartite association between the two twenty amino-acids long GFP tags GFP10 and GFP11, which were fused to hsSTOML3 protein partners, and the complementary GFP1-9 detector (Reference 50). When hsSTOML3 proteins interact, GFP10 and GFP11 self-associate with GFP1-9 and reconstitute functional GFP.
N2a cells were cultured in 6-well plates to approximately 70% confluence; cells were co-transfected with plasmids encoding GFP1-9, STOML3-GFP10 and STOML3-GFP11 using PEI, as per manufacturer's instructions. The transfection reaction was allowed to proceed for 8 h before compound incubation at 20 μM final concentration. Twenty-four hours after transfection cells were collected, fixed with 4% PFA for 10 minutes and resuspended in PBS. Cell suspensions were used for flow cytometry analysis.
In this assay, N2a cells were co-transfected with plasmids encoding GFP1-9, STOML3-GFP10 and STOML3-GFP11 and incubated with either vehicle (0.4% DMSO) or OB-1 derivatives at 20 μM final concentration for 16 h. Twenty-four hours after transfection cells were collected, fixed with 4% PFA and resuspended in PBS.

[2] = system: mice with chronic constriction injury; experiment: Chronic constriction injury (CCI) model, paw withdrawal thresholds to von Frey filaments; assay type: in vivo, mouse
From the text: In deeply anaesthetized mice using isoflurane delivered in 100% 02 (Univentor 410 Anaesthesia unit; Univentor, Malta), four loose silk (5/0; Catgut GmbH Markneukirchen) ligatures were placed around the sciatic nerve at the level of the right mid-thigh as described previously (Wetzel et al., 2007).
(§1) Mice were allowed to habituate to the testing apparatus (acrylic chambers 10×10 cm in size, suspended above a wired mesh grid) one hour prior to behavioral testing. Only once the subject was at rest and not moving, calibrated von-Frey hair monofilaments (Aesthesio® set of 20 monofilaments, Ugo Basil) were applied to the plantar surface of the hind paw in order to deliver target forces from 0.008 grams to 4 grams increasing in an approximately logarithmic scale. A single stimulus indicated by a slight bending of the filament lasted for two seconds unless the mouse withdrew its paw. In order to measure mechanosensitivity the up-and-down method described by Chaplan^13 was adapted as follows: Testing began with a filament delivering a target force of 0.4 g, but filaments were applied three times. A positive response was noted if the subject withdrew the paw to all three filament applications, so that the successively smaller filament was presented next. […] Paw withdrawal thresholds were calculated as median of 23 to 30 determined turning points of the particular force stimuli applied to the subject.
Drug injections of OB-1 or DMSO alone were dissolved in Ringer's solution (in mM: 135 NaCl, 5 KCl, 5 HEPES, 1.8 CaCl2), 1 MgCl2) to make the OB-1 and vehicle solution. Injections were made 3 hours prior to behavioral testing, approximately 20 μl solution, 250 pmol per paw, was injected into the palm with a Hamilton syringe, gauge 33. During the injection procedure, the mouse was anaesthetized with isoflurane (1.5 to 2.5% in 02). The injection procedure lasted around 3 minutes after which the mouse was moved to the home cage for recovery before behavioral testing.
We next interrogated whether local application of OB-1 can ameliorate tactile-evoked pain behavior in neuropathic models. […] We decided to test this idea more directly by testing the effects of local OB-1 on the mechanical sensitivity of Stoml3^−/− mice with CCI. […] Off-target effects are an issue for any biologically active small molecule. We therefore tested the effects of 20 μM OB-1 in a commercially available in vitro pharmacology panel (www.cerep.fr) consisting of 79 receptors and ion channels.

NGF-injected mice = experiment: NGF-induced hyperalgesia; assay type: in vivo, mouse
From the text: as §1

[3] = system: cutaneous sensory afferents of the saphenous nerve; experiment: Ex vivo skin-nerve preparation after local injection into the paw; assay type: in vivo, mouse; details: recordings 24 h after treatment

CCOC(=O)c1c(-c2ccccc2)oc2ccc(Oc3c([N+](=O)[O-])ncn3C)cc12 [OB-1, Ethyl 5-((1-methyl-4-nitro-1H-imidazol-5-yl)oxy)-2-phenylbenzofuran-3-carboxylate]
fibers for which no mechanosensitive receptive field could be found (printed Aβ-fibers) ([1]; 8/38 fibers vs 5% in controls, not significantly different): 21%
Aβ-fibers lacking a mechanosensitive receptive field ([1]; 3 h after 250-500 pmol per paw s.c., 19/44 fibers, vehicle less than 7%): over 40%
proportion of C-fibers that lack a mechanosensitive receptive field ([1]; 3 h after local treatment): no change
firing rates of C-mechanonociceptors (C-Ms) to suprathreshold mechanical stimuli ([1]; OB-1 treated skin): not significantly attenuated
proportion of mechanoreceptor types and mechanosensitivity of remaining Aβ-fiber mechanoreceptors (RAMs, SAMs) ([1]; OB-1 treated skin vs controls): unchanged
mechanical threshold for activation of C-mechanoheat fibers ([1]; OB-1 treated skin, vehicle 106.9±17.4 mN): 196.5±35.6 mN
stimulus response function of C-MH fibers ([1]; ascending displacements 32-1024 μm, vs vehicle): significantly less responsive
mechanosensitivity of A-mechanonociceptors (AM) ([1]; displacements 32-1024 μm): no changes
proportion of Aβ-fibers insensitive to mechanical stimuli ([1]; female mice as in male mice): almost identical proportion
mean force thresholds for C-M fiber ([1]; vehicle vs OB-1): not different
ASIC3-mediated pH-evoked currents (transient and sustained) (ASIC3; CHO cells expressing ASIC3, 20 μm): no effect
negative modulation of ASIC3 mediated currents by mouse stomatin (ASIC3; CHO cells, 20 μM, 3 hours): no detectable effect
hsSTOML3 self-association (GFP signal intensity) (hsSTOML3): strongly reduce
effect of a single dose after 24 h ([2]; CCI): absent
time of maximal effect after a single local injection ([2]; CCI): 3 h
established hypersensitivity ([2]; CCI, applied to the contralateral paw): no reversal
half-maximal effective dose (ED50) ([2]; CCI, paw withdrawal threshold, local injection): 4.42 µM
half-maximal effective dose (ED50) ([2]; CCI, per paw): approximately 20 pmol
paw withdrawal threshold ([2]; Stoml3−/− mice with CCI, local treatment of neuropathic paws): no change
mechanical hypersensitivity ([2]; female mice with CCI, similar extent to males): reversed
tactile-evoked pain or allodynia ([2]; wild type mice, CCI 6-21 days after induction, intraplantar ipsilateral): complete reversal
mechanical hypersensitivity after NGF (NGF-injected mice; local intraplantar): not reversed
NGF-induced thermal hyperalgesia (NGF-injected mice; local treatment, systemic NGF-injection): not alleviate
mechanoreceptor silencing effect, reversibility [3]: completely reversible
